Experimental data: patent US20230219969A1 (priority 2020, published 2023)

These compounds were tested on Rat cortical neurons (assay: Neurite Outgrowth Assay (Procedure A)). Settings: 1 hour treatment at DIV 4, analyzed DIV 7.
Assay type: cell-based
Excerpt: Neurite outgrowth assay. Changes in the pattern of neurite outgrowth have been implicated in neurodegenerative disorders as well as traumatic injuries. The discovery of new compounds that can positively affect neuritogenesis are important for developing new therapeutics for neurological diseases. Measurement of neurite outgrowth of rat cortical neurons using an automated image-based assay is used to determine the neuroplastic effects of the compounds provided herein. In some embodiments, a compound provided herein increases the pattern of neurite outgrowth. In some embodiments, a compound provided herein increases neurite average length compared to a control. In some embodiments, a compound provided herein increases neurite branch points compared to a control. In some embodiments, a compound provided herein increases neurite average length and neurite branch points compared to a control.
In some embodiments, the plastogenic potential of compounds provided herein is assessed by measuring the changes in neurite development. In some embodiments, the plastogenic potential (as measured by Neurite Outgrowth Procedure A) of the compounds is shown in Table 10.
Neurite Outgrowth Assay (Procedure A). Rat cortical neurons (20,000 cells/well) were freshly isolated from embryonic day 18 rats and cultured in Neurobasal Medium (+B27). The cultured cells were plated in 96 well-plates (avoiding external wells). At DIV 4, the neurons were treated with compound or control (10 μM) for 1 hour followed by complete washout of the compound. At DIV 7, the neurons were analyzed. The experiments were performed in triplicate. Neurite outgrowth was measured analyzing the following parameters: Number of Cell Bodies, total neurite length (pixels), Root Count, Segments, Extremities Count and node points. Changes in the pattern of neurite outgrowth of the neurons were analyzed by immunocytochemistry against […]. Pictures were acquired by the CellInsight CX7 from Thermo Fisher and analyzed using its software. Results generated in the equipment were maximum neurite length, extremity count, root count, dendrite branch points, and total neurite length. The results were compared the percent of DMSO control, representing the percentage of outgrowth compare to vehicle control in neuronal outgrowth.

| SMILES | Neurite Average Length @ 10 μM | Neurite Branch Points: @ 10 μM |
| --- | --- | --- |
| COc1cnc2c(ccn2CCN(C)C)c1 [Example 5, 2-(5-methoxy-1H-pyrrolo[2,3-b]pyridin-1-yl)-N,N-dimethylethan-1-amine] | B (100%-200% vehicle) | C (<100% vehicle) |
| COc1cc2ccn(CCN(C)C)c2cn1 [Example 4, 2-(5-methoxy-1H-pyrrolo[2,3-c]pyridin-1-yl)-N,N-dimethylethan-1-amine] | B (100%-200% vehicle) | B (100%-200% vehicle) |
| CN(C)CCn1ccc2cncnc21 [Example 6, N,N-dimethyl-2-(7H-pyrrolo[2,3-d]pyrimidin-7-yl)ethan-1-amine] | A (>200% vehicle) | A (>200% vehicle) |
| COc1ccc2c(c1)CCN2CCN(C)C [Example 8, 2-(5-methoxyindolin-1-yl)-N,N-dimethylethan-1-amine] | B (100%-200% vehicle) | A (>200% vehicle) |
| CN(C)CCn1ccc2cnccc21 [Example 7, N,N-dimethyl-2-(1H-pyrrolo[3,2-c]pyridin-1-yl)ethan-1-amine] | B (100%-200% vehicle) | A (>200% vehicle) |
| COc1ccc2c(ccn2CCN(C)C)n1 [Example 3, 2-(5-methoxy-1H-pyrrolo[3,2-b]pyridin-1-yl)-N,N-dimethylethan-1-amine] | B (100%-200% vehicle) | A (>200% vehicle) |

What follows are compounds tested on 5HT2A (assay: not given). Settings: result in words.

| SMILES | competition with 5-HT in 5HT2A sensor assay in antagonist mode |
| --- | --- |
| COc1ccc2c(CCN(C)C)c[nH]c2c1 [Example 6-MeO-DMT] | compete off 5-HT |

Each compound was assayed on Rat cortical neurons (assay: Neurite Outgrowth in Primary Neuronal Cultures Assay (Procedure B)). Settings: 72 h, percent of DMSO control at 10 μM or less.
Assay type: cell-based
Parameters: key: A: Statistically significant mean increase as a percent of DMSO control at 10 μM or less; B: No statistically significant mean increase as a percent of DMSO control at 10 μM or less
Excerpt: Neurite Outgrowth in Primary Neuronal Cultures Assay (Procedure B). Changes in the pattern of neurite outgrowth have been implicated in psychiatric and neurodegenerative disorders as well as traumatic injuries. The discovery of new compounds that can positively affect neuritogenesis are important for developing new therapeutics for neurological diseases. Measurement of neurite outgrowth of rat cortical neurons using an automated image-based assay was used to determine the neuroplastic effects of the compounds of the present invention. The neurite outgrowth assay was performed at Neurofit SAS (France) as described below.
Pregnant Wistar rats (Janvier; France) were used for the study. They were delivered 6 days before their use. Upon arrival at Neurofit animal facility, they were housed one per cage and maintained in a room with controlled temperature (21-22° C.) and a reversed light-dark cycle (12 h/12 h; lights on: 17:30-05:30; lights off: 05:30-17:30) with food and water available ad libitum.
Female Wistar rats of 17 days gestation were killed by cervical dislocation and the fetuses were removed from the uterus. Their brains were placed in ice-cold medium of Leibovitz (L15, Gibco, Fisher bioblock, France). Cortices were dissected and meninges were carefully removed. The cortical neurons were dissociated by trypsinization for 30 min at 37° C. (trypsin-EDTA, Gibco) in presence of 0.1 mg/ml DNAse I (Roche, France). The reaction was stopped by addition of Dulbecco's Modified Eagle Medium (DMEM; Gibco) with 10% of fetal bovine serum (FBS; Gibco). The suspension was triturated with a 10-ml pipette and using a needle syringe 21G and centrifuged at 350×g for 10 min at room temperature. The pellet of dissociated cells was resuspended in a medium consisting of Neurobasal (Gibco) supplemented with 2% B27 supplement (Gibco), 0.5 mM L-Glutamine (Gibco), an antibiotic-antimicotic mixture. Viable cells were counted in a Neubauer cytometer using the trypan blue exclusion test (Sigma). Cells were seeded at a density of 10000 cells per well in 96-well plate (Costar) precoated with poly-L-lysine. Test compound at different concentrations were added to the cultures. Donepezil (positive control) was tested at 250 nM.
After 72 h (3 days) of plating, cultures were fixed with paraformaldehyde in PBS (4%, Sigma) for 30 min at 4° C. Then, cells were successively permeabilized with 0.1% Triton X100 for 30 min, saturated with PBS containing 3% of BSA and were incubated 1 h with anti-beta III tubulin antibody (Sigma) at 1/10 000 in PBS containing 0.5% of BSA. Cells were washed three times with PBS containing 0.5% of BSA, and they were incubated 1 h with goat anti-mouse antibody coupled with AF488 (Invitrogen A11001) diluted at 1/1000 in PBS containing 0.5% of BSA. Finally, nuclei were staining with DAPI 1 mg/ml at 1/1000 in PBS containing 0.5% of BSA. After rinsing with PBS, the plate was filmed and neurite networks were examined and analyzed using High-Content Screening (CellInsight, Thermo Scientific). The average number of neurites per neuron and the average total length of neurites per neuron were the main parameters analyzed. Analysis of data was performed using analysis of variance (ANOVA). The Fisher's Protected Least Significant Difference test was used for multiple comparisons. A p value<0.05 was considered significant. The software used is StatView 5.0 from SAS Institut.
In some embodiments, a compound of the present invention increases the pattern of neurite outgrowth. In some embodiments, a compound of the present invention increases neurite average length compared to a control. In some embodiments, a compound of the present invention increases neurite branch points compared to a control.

| SMILES | Increase in Neurite Length | Increase in Neurite Number |
| --- | --- | --- |
| COc1cnc2c(ccn2CCN(C)C)c1 [Example 5, 2-(5-methoxy-1H-pyrrolo[2,3-b]pyridin-1-yl)-N,N-dimethylethan-1-amine] | B | B |
| COc1cc2ccn(CCN(C)C)c2cn1 [Example 4, 2-(5-methoxy-1H-pyrrolo[2,3-c]pyridin-1-yl)-N,N-dimethylethan-1-amine] | A | A |
| CN(C)CCn1ccc2cncnc21 [Example 6, N,N-dimethyl-2-(7H-pyrrolo[2,3-d]pyrimidin-7-yl)ethan-1-amine] | B | B |
| COc1ccc2c(c1)CCN2CCN(C)C [Example 8, 2-(5-methoxyindolin-1-yl)-N,N-dimethylethan-1-amine] | A | B |
| CN(C)CCn1ccc2cnccc21 [Example 7, N,N-dimethyl-2-(1H-pyrrolo[3,2-c]pyridin-1-yl)ethan-1-amine] | A | B |
| COc1ccc2c(ccn2CCN(C)C)n1 [Example 3, 2-(5-methoxy-1H-pyrrolo[3,2-b]pyridin-1-yl)-N,N-dimethylethan-1-amine] | A | B |

What follows are compounds tested against T1, 5HT2A (Homo sapiens, UniProt P28223) (assay: Serotonin 5-HT2A in vitro cellular IPOne agonism assay). Settings: CHO-K1 cells, IPOne HTRF; read-out: 5-HT2A IPOne Agonism Activity.
T1 sequence (P28223 whole entry): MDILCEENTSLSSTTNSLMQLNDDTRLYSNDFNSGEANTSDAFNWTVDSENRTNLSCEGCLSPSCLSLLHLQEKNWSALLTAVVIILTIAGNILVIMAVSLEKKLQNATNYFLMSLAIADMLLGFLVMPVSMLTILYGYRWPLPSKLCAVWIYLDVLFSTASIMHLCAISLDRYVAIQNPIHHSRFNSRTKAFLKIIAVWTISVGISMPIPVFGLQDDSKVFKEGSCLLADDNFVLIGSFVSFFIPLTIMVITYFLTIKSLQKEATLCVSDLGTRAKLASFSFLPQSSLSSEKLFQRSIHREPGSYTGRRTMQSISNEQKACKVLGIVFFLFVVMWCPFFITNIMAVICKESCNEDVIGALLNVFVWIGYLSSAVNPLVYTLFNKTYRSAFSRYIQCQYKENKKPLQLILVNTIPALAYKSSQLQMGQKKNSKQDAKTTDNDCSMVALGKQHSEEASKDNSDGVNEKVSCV
Assay type: cell-based
Parameters: host or cells: CHO-K1
Protocol: Serotonin 5-HT2A In Vitro Cellular IPOne Agonism Assay. The 5-HT2A IPOne HTRF assay was performed at Epics Therapeutics S.A. (Belgium, FAST-0505I) using conventional methods. Briefly, CHO-K1 cells expressing human recombinant 5-HT2A receptor grown to mid-log phase in culture media without antibiotics were detached with PBS-EDTA, centrifuged, and resuspended in medium without antibiotics buffer. 20,000 cells are distributed in a 96 well plate and incubated overnight at 37° C. with 5% CO2.
For agonist testing, the medium is removed and 20 μl of assay buffer plus 20 μl of test compound or reference agonist are added in each well. The plate is incubated for 60 min. at 37° C. with 5% CO2.
After addition of the lysis buffer containing IP1-d2 and anti-IP1 cryptate detection reagents, plates are incubated 1-hour at room temperature, and fluorescence ratios are measured according to the manufacturer specification, with the HTRF kit.
(§1) The compounds provided herein were tested in the Serotonin 5-HT2A and 5-HT2C in vitro radioligand binding and cellular IPOne agonism assays. The binding and agonism functional potencies of several compound provided herein compounds (as indicated by their IC50s or EC50s) are shown in Table 11.

| SMILES | EC50 [µM] |
| --- | --- |
| COc1cnc2c(ccn2CCN(C)C)c1 [Example 5, 2-(5-methoxy-1H-pyrrolo[2,3-b]pyridin-1-yl)-N,N-dimethylethan-1-amine] | > 10 |
| COc1cc2ccn(CCN(C)C)c2cn1 [Example 4, 2-(5-methoxy-1H-pyrrolo[2,3-c]pyridin-1-yl)-N,N-dimethylethan-1-amine] | > 10 |
| CN(C)CCn1ccc2cncnc21 [Example 6, N,N-dimethyl-2-(7H-pyrrolo[2,3-d]pyrimidin-7-yl)ethan-1-amine] | > 10 |
| COc1ccc2c(c1)CCN2CCN(C)C [Example 8, 2-(5-methoxyindolin-1-yl)-N,N-dimethylethan-1-amine] | > 10 |
| CN(C)CCn1ccc2cnccc21 [Example 7, N,N-dimethyl-2-(1H-pyrrolo[3,2-c]pyridin-1-yl)ethan-1-amine] | > 10 |
| COc1ccc2c(ccn2CCN(C)C)n1 [Example 3, 2-(5-methoxy-1H-pyrrolo[3,2-b]pyridin-1-yl)-N,N-dimethylethan-1-amine] | > 10 |

Each compound was assayed on mice (assay: Head-twitch response (HTR) in mice). Settings: hallucinogenic potential.
Assay type: in vivo

| SMILES | head-twitch response (HTR) |
| --- | --- |
| COc1ccc2[nH]cc(CCN(C)C)c2c1 [Example 5-MeO-DMT] | produces a robust, dose-dependent head-twitch response |
| COc1ccc2c(CCN(C)C)c[nH]c2c1 [Example 6-MeO-DMT] | does not produce a HTR |

What follows are compounds tested against T1, 5HT2A (assay: Serotonin 5-HT2A in vitro radioligand binding competition assay ([3H]-DOI)). Settings: [3H]-DOI competition, membrane extracts; read-out: 5-HT2A Radioligand Binding Activity.
Parameters: purchased Epics Therapeutics S.A. (Belgium) FAST-0505B
Protocol: Serotonin 5-HT2A In Vitro Radioligand Binding Competition Assay. The 5-HT2A radioligand binding competition assay was performed at Epics Therapeutics S.A. (Belgium, FAST-0505B) using conventional methods. Briefly, competition binding is performed in duplicate in the wells of a 96 well plate (Master Block, Greiner, 786201) containing binding buffer (optimized for each receptor), membrane extracts (amount of protein/well optimized for each receptor), radiotracer [^3H]-DOI (final concentration optimized for each receptor) and test compound. Nonspecific binding is determined by co-incubation with 200-fold excess of cold competitor. The samples are incubated in a final volume of 0.1 ml at a temperature and for a duration optimized for each receptor and then filtered over filter plates. Filters are washed six times with 0.5 ml of ice-cold washing buffer (optimized for each receptor) and 50 μl of Microscint 20 (Packard) are added in each well. The plates are incubated 15 min on an orbital shaker and then counted with a TopCount™ for 1 min/well.
as §1

| SMILES | IC50 [µM] |
| --- | --- |
| COc1cnc2c(ccn2CCN(C)C)c1 [Example 5, 2-(5-methoxy-1H-pyrrolo[2,3-b]pyridin-1-yl)-N,N-dimethylethan-1-amine] | 0.101 to 1 |
| COc1cc2ccn(CCN(C)C)c2cn1 [Example 4, 2-(5-methoxy-1H-pyrrolo[2,3-c]pyridin-1-yl)-N,N-dimethylethan-1-amine] | 1 to 10 |
| CN(C)CCn1ccc2cncnc21 [Example 6, N,N-dimethyl-2-(7H-pyrrolo[2,3-d]pyrimidin-7-yl)ethan-1-amine] | 1 to 10 |
| COc1ccc2c(c1)CCN2CCN(C)C [Example 8, 2-(5-methoxyindolin-1-yl)-N,N-dimethylethan-1-amine] | > 10 |
| CN(C)CCn1ccc2cnccc21 [Example 7, N,N-dimethyl-2-(1H-pyrrolo[3,2-c]pyridin-1-yl)ethan-1-amine] | > 10 |
| COc1ccc2c(ccn2CCN(C)C)n1 [Example 3, 2-(5-methoxy-1H-pyrrolo[3,2-b]pyridin-1-yl)-N,N-dimethylethan-1-amine] | 0.101 to 1 |

These compounds were tested against T1, 5HT2A (assay: cell-based). Settings: not given.

| SMILES | EC50 [µM] |
| --- | --- |
| COc1cnc2c(ccn2CCN(C)C)c1 [Example 5, 2-(5-methoxy-1H-pyrrolo[2,3-b]pyridin-1-yl)-N,N-dimethylethan-1-amine] | > 110 |
| COc1cc2ccn(CCN(C)C)c2cn1 [Example 4, 2-(5-methoxy-1H-pyrrolo[2,3-c]pyridin-1-yl)-N,N-dimethylethan-1-amine] | > 110 |
| CN(C)CCn1ccc2cncnc21 [Example 6, N,N-dimethyl-2-(7H-pyrrolo[2,3-d]pyrimidin-7-yl)ethan-1-amine] | > 110 |
| COc1ccc2c(c1)CCN2CCN(C)C [Example 8, 2-(5-methoxyindolin-1-yl)-N,N-dimethylethan-1-amine] | > 110 |
| CN(C)CCn1ccc2cnccc21 [Example 7, N,N-dimethyl-2-(1H-pyrrolo[3,2-c]pyridin-1-yl)ethan-1-amine] | > 110 |
| COc1ccc2c(ccn2CCN(C)C)n1 [Example 3, 2-(5-methoxy-1H-pyrrolo[3,2-b]pyridin-1-yl)-N,N-dimethylethan-1-amine] | > 110 |

Tested on: 5HT2A
Assay: not given
Assay type: cell-based
Settings: result in words
Remark: another data set of the same source

| SMILES | activation of 5HT2A sensor assay in agonist mode |
| --- | --- |
| COc1ccc2[nH]cc(CCN(C)C)c2c1 [Example 5-MeO-DMT] | activate the 5HT2A sensor assay in agonist mode |
| COc1ccc2c(CCN(C)C)c[nH]c2c1 [Example 6-MeO-DMT] | do not activate the 5HT2A sensor assay in agonist mode |
